Reference: patent EP0419844B1, “N-hydroxy-dibenz[b,e]oxepin-alkylamines and -alkanoic acid amides, related heterocyclic analogues, a process for their preparation and their use in the manufacture of medicaments” (HOECHST-ROUSSEL PHARMACEUTICALS INCORPORATED, priority 1989, dated 1991)

How the values were obtained:
[1] = system: phenyl-para-quinone induced writhing; test: Phenyl-para-benzoquinone writhing assay (analgesia); format: in vivo; conditions: Mus musculus, mice; for ED50: sc, subcutaneous dose at which 50% of the phenyl-para-quinone induced writhing is inhibited, read-out: ED₅₀
Excerpt: The compounds of the present invention are also useful as analgesic agents due to this ability to alleviate pain in mammals. […] Exptl. Biol. Med., 95, 729 (1957)].
The analgesic activity of some of the compounds expressed as either the subcutaneous dose at which 50% of the phenyl-para-quinone induced writhing is inhibited in the animals, i.e., the ED₅₀ value, or as the % decrease in writhing at a given dose is presented in Table 2.

[2] = system: naja naja (snake venom) phospholipase A₂(PLA₂)-induced paw edema; test: Phospholipase A2-Induced Paw Edema (PIPE); format: in vivo, male Wistar rats; conditions: for PIPE 0.1 M: 0.1 M test compound injected with PLA2 (3 units/paw) in the subplantar region of the rat left hindpaw, paw displacement at two hours; for ED₅₀: standards of the PIPE assay, PLA2-induced rat paw edema
Protocol: Phospholipase A₂-Induced Paw Edema (PIPE)
The ability of compounds to reverse naja naja (snake venom) phospholipase A₂(PLA₂)-induced paw edema in male Wistar rats (100-125 gm) was measured. PLA₂ (3 units/100 »l dH₂O/paw) alone or with 0.1 M of the test compound was injected in the sulplantar region of the rat left hindpaw. Immediatly following injection and at two hours post administration, the paw was immersed in a mercury bath, and paw displacement was measured on a recorder via a transducer. The value was then converted to […]. (Standards: Quinacrine ED₅₀ = 0.1 M; Hydrocortisone ED₅₀= 0.46 M). Giessler, A.J. et al., "Agents and Action", Vol. 10, "Trends in Inflammation Research" (1981), p. 195.

[3] = system: arachidonic acid-induced ear edema; test: Arachidonic Acid-Induced Mouse Ear Edema (AAEE); format: in vivo, female Swiss Webster mice; conditions: 1 mg/ear topical, 30 minutes before arachidonic acid 4 mg/ear; ear plug weight one hour later, relative to control
Protocol: Arachidonic Acid-Induced Mouse Ear Edema (AAEE)
In the arachidonic acid-induced ear edema assay, the test compound is dissolved in 30/70 propylene glycol/ethanol and is applied to both ears of groups of 6 female Swiss Webster mice at a volume of 20 »l so that a total of 1.0 mg of test compound as delivered to each ear over the inner and outer surfaces. The mice were housed together in a cage under standard conditions for 1 week prior to use with food and water ad lib. The same volume (20 »l) of vehicle is applied to each ear of a control group of mice. After 30 minutes, arachidonic acid is applied to the right ear of each mouse of each group in the amount of 4 mg/ear. Vehicle is applied to the left ear of each mouse of each group at a volume of 20 »l/ear. After an additional hour, the mice are sacrificed and a 4mm plug is taken from each ear and weighed. The difference between the right and left ear plugs was determined for each animal. The antiinflammatory activity of the test compound is expressed as the mean percent change in the ear plug weight of the treated animals relative to the mean percent change in weights of control animals' ear. (Standard: Indomethacin -90% at 1 mg/ear). Young, J.M. et al., Invest. Dermatol., 80, (1983), pp. 48-52.

TPA-induced ear edema = test: TPA-Induced Ear Edema (TPAEE); format: in vivo, female Swiss Webster mice; conditions: for TPAEE 10 »g/ear: 10 »g/ear compound topical with 10 »g TPA, ear plug weight after about 5 hours, mean percent change versus control
Protocol: TPA-Induced Ear Edema (TPAEE)
In the TPA-induced ear edema assay, TPA (12-0-tetradecanoyl-phorbol-13-acetate) is dissolved in 30/70 propylene glycol/ethanol and is applied to the right ear of groups of 6 female Swiss Webster mice at a volume of 20 »l so that a total of 10 »g of TPA is delivered to the inner and outer surfaces of the ear. The mice were housed together in a cage under standard conditions for 1 week prior to use with food and water ad lib. The test compound is dissolved in the vehicle and is applied to the right ear (the inner and outer surfaces) at a volume of 20 »l so that a total of 10 »g of the compound is delivered to the ear. After about 5 hours, the animals are sacrificed and a 4 mm diameter plug is taken from each ear and weighed. The difference between the right and left ear plug weights for each animal was determined. The antiinflammatory activity of the test compound is expressed as the mean percent change in ear plug weight of the treated animals compared to the mean percent change in the plug weight of the control animals. (Standard: Indomethacin: -86% at 1 mg/ear). Young, J.M. et al., J. Invest. Dermatol., 80 (1983), pp. 48-52.

## CCN(O)C(=O)C(C)c1ccc2c(c1)C(=O)c1ccccc1CO2 (centres unmarked) [2-(6,11-Dihydro-11-oxodibenz[b,e,]oxepin-2-yl]-N-ethyl-N-hydroxypropanamide]
[1]
  ED50: 3.6 mg/kg

## CN(O)CCc1ccc2c(c1)C(=O)c1ccccc1CO2 [2-(6,11-Dihydro-11-oxodibenz[b,e]oxepin-2-yl)-N-hydroxy-N-methyl-ethylamine]
[2]
  PIPE 0.1 M: -70
[3]
  AAEE % Change @ 1 mg/ear: -46%
TPA-induced ear edema
  TPAEE 10 »g/ear: -50

## O=C1c2ccccc2COc2ccc(CCC(=O)N(O)C3CCCCC3)cc21 [3-(6,11-Dihydro-11-oxodibenz[b,e]oxepin-2-yl)-N-cyclohexyl-N-hydroxypropanamide]
[1]
  inhibition at 20 mg/kg: 76%

## CN(O)C(=O)CCc1ccc2c(c1)C(=O)c1ccccc1CO2 [3-(6,11-Dihydro-11-oxodibenz[b,e]oxepin-2-yl)-N-hydroxy-N-methylpropanamide]
[2]
  PIPE 0.1 M: -46
[3]
  AAEE % Change @ 1 mg/ear: -63%
TPA-induced ear edema
  TPAEE 10 »g/ear: -71

## C[C@]12CCC(=O)C=C1CC[C@@H]1[C@@H]2[C@@H](O)C[C@@]2(C)[C@H]1CC[C@]2(O)C(=O)CO [Hydrocortisone, reference compound]
[2]
  ED₅₀: 0.46 M

## COc1ccc2c(c1)c(CC(=O)O)c(C)n2C(=O)c1ccc(Cl)cc1 [Indomethacin, reference compound]
[3]
  AAEE % Change @ 1 mg/ear: -90%
TPA-induced ear edema; standard, at 1 mg/ear
  TPAEE percent change in ear plug weight: -86%

## O=C1c2ccccc2COc2ccc(CC(=O)N(O)C3CCCCC3)cc21 [N-Cyclohexyl-2-(6,11-dihydro-11-oxodibenz[b,e]oxepin-2-yl)-N-hydroxyacetamide]
[2]
  PIPE 0.1 M: -85
[3]
  AAEE % Change @ 1 mg/ear: -29%
TPA-induced ear edema
  TPAEE 10 »g/ear: -52
[1]
  inhibition at 20 mg/kg: 68%

## CCC(=O)O[C@](Cc1ccccc1)(c1ccccc1)[C@H](C)CN(C)C [Propoxyphene, reference compound]
[1]
  ED50: 3.9 mg/kg

## CCN(CC)CCCC(C)Nc1c2ccc(Cl)cc2nc2ccc(OC)cc12 (centres unmarked) [Quinacrine, reference compound]
[2]
  ED₅₀: 0.1 M
